In data set [1] the test system is HCV replicons (NS3-NS5B regions of HCV type Ib) in Huh-7 luc/neo cells. The experiment in a line: HCV replicon assay (Huh-Luc luciferase reporter). It is filed as cell-based. Conditions: Hepatitis C virus, Huh-7, 72 h; Huh-Luc replicon cells, three days incubation, luciferase activity; read-out: EC50. As to the method:
The in vitro antiviral activity against HCV of the compounds of formula (I) was tested in a cellular HCV replicon system based on Lohmann et al. (1999) Science 285:110-113, with the further modifications described by Krieger et al. (2001) Journal of Virology 75: 4614-4624, which is further exemplified in the examples section. This model, while not a complete infection model for HCV, is widely accepted as the most robust and efficient model of autonomous HCV RNA replication currently available. […] It will be appreciated that it is important to distinguish between compounds that specifically interfere with HCV functions from those that exert cytotoxic or cytostatic effects in the HCV replicon model, and as a consequence cause a decrease in HCV RNA or linked reporter enzyme concentration. Assays are known in the field for the evaluation of cellular cytotoxicity based for example on the activity of mitochondrial enzymes using fluorogenic redox dyes such as resazurin. Furthermore, cellular counter screens exist for the evaluation of non-selective inhibition of linked reporter gene activity, such as firefly luciferase. Appropriate cell types can be equipped by stable transfection with a luciferase reporter gene whose expression is dependent on a constitutively active gene promoter, and such cells can be used as a counter-screen to eliminate non-selective inhibitors.
The compounds of formula (I) were examined for activity in the inhibition of HCV RNA replication in a cellular assay. […] The cellular assay was based on a bicistronic expression construct, as described by Lohmann et al. (1999) Science vol. 285 pp. 110-113 with modifications described by Krieger et al. (2001) Journal of Virology 75: 4614-4624, in a multi-target screening strategy. In essence, the method was as follows.
The assay utilized the stably transfected cell line Huh-7 luc/neo (hereafter referred to as Huh-Luc). This cell line harbors an RNA encoding a bicistronic expression construct comprising the wild type NS3-NS5B regions of HCV type Ib translated from an Internal Ribosome Entry Site (IRES) from encephalomyocarditis virus (EMCV), preceded by a reporter portion (FfL-luciferase), and a selectable marker portion (neo^R, neomycine phosphotransferase). The construct is bordered by 5′ and 3′ NTRs (non-translated regions) from HCV type Ib. Continued culture of the replicon cells in the presence of G418 (neo^R) is dependent on the replication of the HCV RNA. The stably transfected replicon cells that express HCV RNA, which replicates autonomously and to high levels, encoding inter alia luciferase, are used for screening the antiviral compounds.
The replicon cells were plated in 384 well plates in the presence of the test and control compounds which were added in various concentrations. Following an incubation of three days, HCV replication was measured by assaying luciferase activity (using standard luciferase assay substrates and reagents and a Perkin Elmer ViewLux™ ultraHTS microplate imager). Replicon cells in the control cultures have high luciferase expression in the absence of any inhibitor. The inhibitory activity of the compound on luciferase activity was monitored on the Huh-Luc cells, enabling a dose-response curve for each test compound.
(In general: In antiviral work, replicon cells carry a viral genome segment that copies itself.)

Data set [2] is described as follows: In vitro metabolic blocking by ritonavir in human liver microsomes. The format is in vitro ADME. Conditions: 3 μM test compound, human liver microsomes 1 mg/ml, 37° C., % of initial concentration. How it is done: Compound nr 11 of Table 1 was tested in a metabolic blocking experiment using 3 μM test compound together with 10 μM ritonavir acting as booster.
The test compound and ritonavir were added to human liver microsomes (protein concentration 1 mg/ml) suspended in potassium phosphate buffer (pH=7.4), to get final reaction mixture concentrations of 3 μM test compound and 10 μM ritonavir. In the non-boosted parallel reactions, ritonavir was not added. Boiled human liver microsomes were used for blank experiments. After addition (in a 1:3 ratio) of a cofactor mixture consisting of β-nicotinamide adenine dinucleotide phosphate (β-NADP, 0.5 mg/ml, 653.2 μM), D-Glucose-6-phosphate (2 mg/ml, 7.1 mM), Glucose-6-phosphate dehydrogenase (1.5 U/ml) in 2% NaHCO3, the reaction mixture was incubated at 37° C. for 30 or 120 minutes after which the reaction was stopped by increasing the temperature to 95° C. Test compound concentrations were determined using HPLC-MS.
Values are percentages of the test compound detected after the indicated incubation times as compared to the initial test compound concentration. Each value is the mean of the results of two independent experiments.
Background: Microsomes from liver hold many membrane-bound enzymes, among them those of drug oxidation.

The results in this text go back to US7989471B2, “Macrocyclic inhibitors of hepatitis C virus” (Tibotec Pharmaceuticals Ltd., priority 2005, dated 2011).

The structures appear in SMILES notation.

Broadly, the EC50 is the concentration at which the effect is half-maximal. On to `COc1ccc2c(O[C@@H]3C[C@H]4C(=O)N[C@]5(C(=O)NS(=O)(=O)C6CC6)C[C@H]5/C=C\CCCCCCC(=O)N4C3)cc(-c3nc(C(C)C)cs3)nc2c1` [Compound 11, N-[[18-[2-[4-(isopropyl)thiazol-2-yl]-7-methoxyquinolin-4-yloxy]-2,15-dioxo-3,16-diazatricyclo[14.3.0.0^4,6]nonadec-7-en-4-yl]carbonyl](cyclopropyl)sulfonamide], for which, in data set [1], the 50% effective concentration (EC50) is 17 nM. Further, the “% Detected Compound” value in data set [2] (30′ incubation, No Booster) is listed as 28%; in data set [2] (30′ incubation, with 10 μM ritonavir) it was 79%; in data set [2] (120′ incubation, No Booster) it was 0%; in data set [2] (120′ incubation, with 10 μM ritonavir) it was 91%. `COc1ccc2c(O[C@@H]3C[C@H]4C(=O)N[C@]5(C(=O)O)C[C@H]5/C=C\CCCCCC(=O)N4C3)cc(-c3nc(C(C)C)cs3)nc2c1Cl` [Compound 56, 17-[8-chloro-2-(4-isopropylthiazol-2-yl)-7-methoxyquinolin-4-yloxy]-2,14-dioxo-3,15-diazatricyclo[13.3.0.0^4,6]octadec-7-ene-4-carboxylic acid]: the EC50 in data set [1] worked out at 318 nM. With `COc1ccc2c(O[C@@H]3C[C@H]4C(=O)N[C@]5(C(=O)NS(=O)(=O)C6CC6)C[C@H]5/C=C\CCCCCC(=O)N4C3)cc(-c3nc(C(C)C)cs3)nc2c1Cl` [Compound 57, N-[17-[8-chloro-2-(4-isopropylthiazol-2-yl)-7-methoxyquinolin-4-yloxy]-2,14-dioxo-3,15-diazatricyclo[13.3.0.0^4,6]octadec-7-ene-4-carbonyl]-(cyclopropyl)sulfonamide], the EC50 in data set [1] turned out to be 12 nM.

On to `COc1ccc2c(O[C@@H]3C[C@H]4C(=O)N[C@]5(C(=O)O)C[C@H]5/C=C\CCCCCC(=O)N4C3)cc(-c3nc(C(C)C)cs3)nc2c1C` [Compound 58, 17-[2-(4-isopropylthiazol-2-yl)-7-methoxy-8-methylquinolin-4-yloxy]-2,14-dioxo-3,15-diazatricyclo[13.3.0.0^4,6]octadec-7-ene-4-carboxylic acid], for which the EC50 in data set [1] came out at 1600 nM. Still for that read-out and setting: then `COc1ccc2c(O[C@@H]3C[C@H]4C(=O)N[C@]5(C(=O)NS(=O)(=O)C6CC6)C[C@H]5/C=C\CCCCCC(=O)N4C3)cc(-c3nc(C(C)C)cs3)nc2c1C` [Compound 59, N-[17-[2-(4-isopropylthiazol-2-yl)-7-methoxy-8-methylquinolin-4-yloxy]-2,14-dioxo-3,15-diazatricyclo[13.3.0.0^4,6]octadec-7-ene-4-carbonyl]-(cyclopropyl)sulfonamide], with 3 nM; and `COc1ccc2c(O[C@@H]3C[C@H]4C(=O)N[C@]5(C(=O)NS(=O)(=O)C6(C)CC6)C[C@H]5/C=C\CCCCCC(=O)N4C3)cc(-c3nc(C(C)C)cs3)nc2c1C` [Compound 60, N-[17-[2-(4-isopropylthiazol-2-yl)-7-methoxy-8-methylquinolin-4-yloxy]-2,14-dioxo-3,15-diazatricyclo[13.3.0.0^4,6]octadec-7-ene-4-carbonyl]-(1-methylcyclopropyl)sulfonamide], with 14 nM; and `COc1ccc2c(O[C@@H]3C[C@H]4C(=O)N[C@]5(C(=O)NS(=O)(=O)C6(C)CC6)C[C@H]5/C=C\CCCCCC(=O)N4C3)cc(-c3nc(C(C)C)cs3)nc2c1Cl` [Compound 61, N-[17-[8-chloro-2-(4-isopropylthiazol-2-yl)-7-methoxyquinolin-4-yloxy]-2,14-dioxo-3,15-diazatricyclo[13.3.0.0^4,6]octadec-7-ene-4-carbonyl]-(1-methylcyclopropyl)sulfonamide], with 1 nM.

`COc1ccc2c(O[C@@H]3C[C@H]4C(=O)N[C@]5(C(=O)NS(=O)(=O)C6CC6)C[C@H]5/C=C\CCCCCC(=O)N4C3)cc(-c3nc(C(C)C)cs3)nc2c1` [Compound 63, N-[17-[2-(4-isopropylthiazol-2-yl)-7-methoxyquinolin-4-yloxy]-2,14-dioxo-3,15-diazatricyclo[13.3.0.0^4,6]octadec-7-ene-4-carbonyl]-(cyclopropyl)sulfonamide]: in data set [1], the 50% effective concentration (EC50) is 24 nM.
